Data: US7531356B2, “Promoter sequences for corticotropin releasing-factor receptor CRF2α and method of identifying agents that alter the activity of the promoter sequences” (Wisconsin Alumni Research Foundation, priority 2000, dated 2009)
Ends that are not written are not given here.

Legend:
[1] = tested on: full-length CRF2α receptor promoter (−3898 construct); experiment: Luciferase reporter expression from the full-length (−3898) CRF2α receptor promoter construct in transfected CHO-K1 cultures; assay type: cell-based, human; settings: CHO-K1, −3898 construct, forskolin 10 μM without IBMX, 24 hours; for change in expression from the full-length CRF2α promoter compared with control cultures: CRF, urocortin, dexamethasone 1 μM, vs untreated (CRF, urocortin) or DMSO control
Experimental: (§1) In one embodiment, the present invention is a transfected cell line. One preferred method of creating such a cell line is described as follows: The constructs described above containing the human or rat promoter fragments placed upstream of the firefly luciferase gene are used to transfect immortalized cell lines. The constructs are transfected into CHO-K1 and A7R5 cell lines using lipofectamine 2000 (Life Technologies, Rockville, Md.). […] Both cell lines can be maintained at 37° C. with 5% CO2 in DMEM supplemented with 10% fetal bovine serum. Primary cultures of the central nervous system, as well as additional immortalized cell lines, are also appropriate for these transfections. To control for transfection efficiency, the cells are also co-transfected with the pRL-TK vector (Promega, Madison, Wis.). The pRL-TK vector contains the Renilla luciferase gene downstream of the herpes simplex virus thymidine kinase promoter, a promoter which provides low to moderate levels of expression. Cell lysates are assayed for total protein using the BCA assay (Pierce, Rockford, Ill.) to standardize for the protein extraction. The level of reporter gene expression from a standardized amount of cell extract is quantified by measuring luciferase activity using a luminometer (EG&G Wallac, Gaithersburg, Md.) and the dual-luciferase reporter assay system (Promega, Madison, Wis.). Firefly luciferase activity reflects CRF2α receptor promoter activity and Renilla luciferase activity is used to normalize data between experiments.
A stated goal for the constructs is the ability to identify agents that can alter expression of the CRF2α gene. […] Using methods previously described in this application, CHO-K1 cultures were transfected with the −3898 construct and the pRL-TK internal control construct. These cultures were then treated with either CRF (1 μM), urocortin (1 μM), dexamethasone (1 μM), forskolin (10 μM), or the appropriate control at the time of transfection. […]

[2] = tested on: full-length CRF2α receptor promoter (−3898 construct); experiment: Luciferase reporter expression from the full-length (−3898) CRF2α receptor promoter construct in transfected A7R5 cultures; assay type: cell-based, human; settings: for change in expression from the −3898 construct compared to untreated control cultures: agonist 1 μM alone, p<0.001; for effect of antagonist on CRF or urocortin induced reduction in expression from the full length promoter: antagonist 1 μM plus CRF or urocortin 1 μM
Experimental: as §1
Using a similar experimental paradigm, we treated A7R5 cultures to determine what agents may alter expression from the CRF2α promoter. In addition to treating the cultures with CRF and urocortin (1 μM each), A7R5 cultures also were treated with either of the antagonists alone D-Phe or DMP696 (1 μM each), CRF plus D-Phe (1 μM each), CRF plus DMP696 (1 μM each), urocortin plus D-Phe (1 μM each), and with urocortin plus DMP696 (1 μM each). D-Phe is a non-selective CRF receptor antagonist, blocking both CRF1 and CRF2 receptors, whereas DMP696 is specific to CRF1 receptors. A7R5 cultures are known to express CRF2 receptors and should be a highly appropriate cell type to monitor CRF2α receptor expression.
In a separate experiment the effects of forskolin and dexamethasone were compared to DMSO control A7R5 cultures. […] These findings are consistent with those seen in the CHO-K1 cultures.

Compound | mean expression (firefly luciferase activity normalized to Renilla luciferase) ([1]; DMSO control mean 0.411±0.004, p<0.001) | change in expression from the full-length CRF2α promoter compared with control cultures [1] | change in expression from the −3898 construct compared to untreated control cultures [2] | effect of antagonist on CRF or urocortin induced reduction in expression from the full length promoter [2]
C=C[C@@]1(C)CC(=O)[C@]2(O)[C@@]3(C)[C@@H](O)CCC(C)(C)[C@@H]3[C@H](O)[C@H](OC(C)=O)[C@@]2(C)O1 [forskolin] | 0.302±0.012 | – | – | –
urocortin: neurotransmitter similar to CRF; ligand for the CRF receptors (DNPSLSIDLTFHLLRTLLELARTQSQRERAEQNRIIFDSV; ends and bridges not checked; UniProt P55089 83-122, looked up) | – | did not significantly change expression | significantly decrease expression | –
CRF: hormone and neurotransmitter; ligand for the CRF receptors | – | did not significantly change expression | significantly decrease expression | –
COCC(COC)Nc1nc(C)nc2c(-c3ccc(Cl)cc3Cl)c(C)nn12 [DMP696] | – | – | – | did not affect either the CRF or urocortin induced reduction in expression
D-Phe | – | – | – | brought expression from the full length promoter back to the levels seen in the untreated controls
